Measurements taken from patent publication US10335370B2, “Controlled release composition” (priority 2008, dated 2019).

Columns and labels:
Format in all cases: in vivo
H22 tumor cell = assay: Tumor growth inhibition, H22 tumor in mice; details: 12 mg/kg i.p., four injections; 15th day after inoculation
Description: Cisplatin implant prepared according to Example 5 was used in this study. Ascites fluid was taken from d7 H22 passage mice under sterile conditions, and the ascites fluid was diluted with normal saline to prepare tumor cell suspension at a concentration of 1.0×10^7 cells/ml. Each mouse received a subcutaneous injection of 0.2 ml tumor cell suspension at the right armpit (number of inoculated cells: 2×10^6). The mice were randomized into 6 groups the next day after inoculation, cisplatin implant or excipient control was implanted near the tumor at the seventh day after inoculation. The positive control group received an intraperitoneal injection of cisplatin the next day after inoculation, and four injections in total at an interval of twice a week. The negative control group received an intraperitoneal injection of normal saline the next day after inoculation, and four injections in total at an interval of twice a week. The mice were sacrificed at the 15th day after inoculation, and the tumor mass were peeled and weighted. Tumor growth inhibition rate was calculated using the following equation: […]

SGC-7901 tumor = assay: Tumor growth inhibition, SGC-7901 tumor in nude mice; details: 1.6 mg ip, four injections; 21st day after inoculation
Description: Fluorouracil implant prepared according to Example 2 were used in this study. SGC-7901 tumor tissues at vigorous growth stage were obtained and cut into pieces of about 1.5 mm^3. The tumor tissue pieces were inoculated subcutaneously to the right armpit of nude mice, under sterile conditions. The mice were randomized into 6 groups at the sixth day after inoculation. Three groups were treated with different doses of fluorouracil implant prepared according to Example 2. Another group was treated with excipient at the sixth day after noculation. The fluorouracil implant or excipient was implanted subcutaneously near the tumor. The positive group received four intraperitoneal injections of fluorouracil in total at an interval of twice a week. The negative control group received four intraperitoneal injections of normal saline in total at an interval of twice a week. The mice were sacrificed at the 21st day after inoculation, and the tumor mass were peeled and weighed. The tumor growth inhibition rate was calculated using the following equation: […]

[1] = system: Pancreatic cancer cell line PC3; assay: Tumor size, pancreatic cancer PC3 in nude mice; details: Group B, i.v. 10 mg/kg
Description: Fluorouracil implant composition prepared according to Example 2 was tested for its efficacy on pancreatic cancer. Pancreatic cancer cell line PC3 was cultured and inoculated subcutaneously to 70 nude mice at the right armpit at the dose of 2×10^6 cells per inoculation. Tumor grew to the size of about 4 mm×4 mm×4 mm 4 weeks after the implant. 60 nude mice having tumors of similar sizes were selected and randomized into 5 groups with 12 mice in each group: Group A was administered intravenously through the angular vein with normal saline at the dose of 0.1 ml per mice; Group B was administered intravenously through the angular vein with 0.1 ml fluorouracil solution in normal saline at the dose of 10 mg/kg; Group C was implanted with blank matrix; Group D was implanted with fluorouracil implant composition into the pancreatic tumor mass at the dose of 4 mg/kg; and Group E was implanted with fluorouracil implant composition into the pancreatic tumor mass at the dose of 1 mg/kg. The size of the tumor mass was measured before and after treatment.

Row | SMILES | Tumor growth inhibition rate (%) (H22 tumor cell) | Tumor weight X ± SD (H22 tumor cell) [g] | Tumor growth inhibition rate (%) (SGC-7901 tumor) | Tumor weight X ± SD (SGC-7901 tumor) [g] | tumor size ([1]; 3rd day) [mm^3] | tumor size ([1]; 6th day) [mm^3] | tumor size ([1]; 10th day) [mm^3] | tumor size ([1]; 14th day) [mm^3] | tumor size ([1]; Before treatment) [mm^3]
1 | N.N.[Cl][Pt][Cl] [cisplatin] | 19.68 | 2.98 ± 1.14 |  |  |  |  |  |  | 
2 | O=c1[nH]cc(F)c(=O)[nH]1 [fluorouracil] |  |  | 75.76 | 0.71 ± 0.42 | 72.3 | 96.62 ± 20.5 | 107.3 ± 20.9 | 121.6 ± 14.3 | 61.5 ± 8.7
